In patent US20070128217A1 (priority 2003, published 2007):

What was measured:
[1] = tested on: antibodies in sera from SARS patients (sera 1a, 1b, 2, 6, 37, 62, London, SARS-yellow, SARS-green); type: binding, human; design: Binding of serum 6 to linear peptides of protein X1 of SARS-CoV Urbani / Binding of serum 37 to linear peptides of protein X1 of SARS-CoV Urbani / Binding of serum 6 to looped/cyclic peptide (PEPSCAN-ELISA) / Binding of serum 37 to looped/cyclic peptide (PEPSCAN-ELISA) / Binding of serum 37 to looped/cyclic peptides of protein X1 of SARS-CoV Urbani / Binding of serum 6 to linear peptides of protein X2 / Binding of serum 37 to linear peptides of protein X2 / Binding of serum 37 to looped/cyclic peptides of protein X2 of SARS-CoV Urbani / Binding of serum 6 to linear peptides of protein M of SARS-CoV Urbani / Binding of serum 37 to linear peptides of protein M of SARS-CoV Urbani / Binding of serum 6 to looped/cyclic peptides of protein M of SARS-CoV Urbani / Binding of serum 37 to looped/cyclic peptides of protein M of SARS-CoV Urbani / Binding of serum 6 to linear peptides of protein X3 of SARS-CoV Urbani / Binding of serum 37 to linear peptides of protein X3 of SARS-CoV Urbani / Binding of serum 37 to looped/cyclic peptides of protein X3 of SARS-CoV Urbani / Binding of serum 6 to linear peptides of protein X4 of SARS-CoV Urbani / Binding of serum 37 to linear peptides of protein X4 of SARS-CoV Urbani / Binding of serum 37 to looped/cyclic peptides of protein X4 of SARS-CoV Urbani / Binding of serum 6 to linear peptides of protein X5 of SARS-CoV Urbani / Binding of serum 37 to linear peptides of protein X5 of SARS-CoV Urbani / Binding of serum 37 to looped/cyclic peptides of protein X5 of SARS-CoV Urbani / Binding of serum 6 to linear peptides of protein N of SARS-CoV Urbani / Binding of serum 37 to linear peptides of protein N of SARS-CoV Urbani / Binding of serum 6 to linear peptide (PEPSCAN-ELISA) / Binding of serum 1a to looped/cyclic peptides of protein N of SARS-CoV Urbani / Binding of serum 1b to looped/cyclic peptides of protein N of SARS-CoV Urbani / Binding of serum 2 to looped/cyclic peptides of protein N of SARS-CoV Urbani / Binding of serum 6 to looped/cyclic peptides of protein N of SARS-CoV Urbani / Binding of serum 37 to looped/cyclic peptides of protein N of SARS-CoV Urbani / Binding of serum 62 to looped/cyclic peptides of protein N of SARS-CoV Urbani / Binding of serum London to looped/cyclic peptides of protein N of SARS-CoV Urbani / Binding of serum SARS-green to looped/cyclic peptides of protein N of SARS-CoV Urbani: unit not given here
[2] = tested on: control sera (pooled serum of ten healthy LUMC hospital workers; commercial negative donor pooled serum from the Dutch bloodbank); type: binding, human; design: Binding of Control serum LUMC to linear peptides / Binding of Control serum Blood-bank to linear peptides / Binding of Control serum LUMC to looped peptides / Binding of Control Serum Blood-Bank to Looped peptides / Binding of Control serum LUMC to linear peptides of the protein M of SARS-CoV Urbani / Binding of Control serum Blood-bank to linear peptides of the protein M of SARS-CoV Urbani / Binding of Control serum LUMC to looped peptides of the protein M of SARS-CoV Urbani / Binding of Control Serum Blood-Bank to Looped peptides of the protein M of SARS-CoV Urbani: unit not given here
[3] = tested on: rabbit serum obtained by immunizing a rabbit with the SARS-CoV strain Frankfurt 1; type: binding; design: Binding of a rabbit serum to linear peptides / Binding of a rabbit serum to looped peptides / Rabbit serum linear peptides / Rabbit serum looped peptides / Binding of a rabbit serum to linear peptides of protein N of SARS-CoV Urbani (Rabbit serum linear peptides) / Binding of a rabbit serum to looped/cyclic peptides of protein N of SARS-CoV Urbani (Rabbit serum looped peptides): unit not given here

Sequence: LVIGFLFLAWIMLLQ
- Binding of serum 1a to linear peptides of protein M of SARS-CoV Urbani [1]: 0.7
- Binding of serum 1a to looped/cyclic peptides of protein M of SARS-CoV Urbani [1]: 0.7
- Binding of serum 1b to linear peptides of protein M of SARS-CoV Urbani [1]: 0.5
- Binding of serum 1b to looped/cyclic peptides of protein M of SARS-CoV Urbani [1]: 0.6
- Binding of serum 2 to linear peptides of protein M of SARS-CoV Urbani [1]: 0.5
- Binding of serum 2 to looped/cyclic peptides of protein M of SARS-CoV Urbani [1]: 0.8
- Binding of serum 6 to linear peptides of protein M of SARS-CoV Urbani [1]: 0.4
- Binding of serum 6 to looped/cyclic peptides of protein M of SARS-CoV Urbani [1]: 0.5
- Binding of serum 37 to linear peptides of protein M of SARS-CoV Urbani [1]: 0.4
- Binding of serum 37 to looped/cyclic peptides of protein M of SARS-CoV Urbani [1]: 0.7
- Binding of serum 62 to linear peptides of protein M of SARS-CoV Urbani [1]: 0.4
- Binding of serum 62 to looped/cyclic peptides of protein M of SARS-CoV Urbani [1]: 0.7
- Binding of serum London to linear peptides of protein M of SARS-CoV Urbani [1]: 0.3
- Binding of serum London to looped/cyclic peptides of protein M of SARS-CoV Urbani [1]: 0.2
- Binding of serum SARS-green to linear peptides of protein M of SARS-CoV Urbani [1]: 0.4
- Binding of serum SARS-green to looped/cyclic peptides of protein M of SARS-CoV Urbani [1]: 0.3
- Binding of serum SARS-yellow to linear peptides of protein M of SARS-CoV Urbani [1]: 0.1
- Binding of serum SARS-yellow to looped/cyclic peptides of protein M of SARS-CoV Urbani [1]: 0.7
- Binding of Control Serum Blood-Bank to Looped peptides of the protein M of SARS-CoV Urbani [2]: 0.6
- Binding of Control serum Blood-bank to linear peptides of the protein M of SARS-CoV Urbani [2]: 0.6
- Binding of Control serum LUMC to linear peptides of the protein M of SARS-CoV Urbani [2]: 0.5
- Binding of Control serum LUMC to looped peptides of the protein M of SARS-CoV Urbani [2]: 0.7
- Rabbit serum linear peptides [3]: 0.1
- Rabbit serum looped peptides [3]: 0.3

Sequence: LVLKMLHSSSLTSLL
- Binding of serum 1a to linear peptides of protein X2 [1]: 0.6
- Binding of serum 1a to looped/cyclic peptides of protein X2 of SARS-CoV Urbani [1]: 0.6
- Binding of serum 1b to linear peptides of protein X2 [1]: 0.4
- Binding of serum 1b to looped/cyclic peptides of protein X2 of SARS-CoV Urbani [1]: 0.5
- Binding of serum 2 to linear peptides of protein X2 [1]: 0.3
- Binding of serum 2 to looped/cyclic peptides of protein X2 of SARS-CoV Urbani [1]: 0.3
- Binding of serum 6 to linear peptides of protein X2 [1]: 0.3
- Binding of serum 6 to looped/cyclic peptides of protein X2 of SARS-CoV Urbani [1]: 0.4
- Binding of serum 37 to linear peptides of protein X2 [1]: 0.4
- Binding of serum 37 to looped/cyclic peptides of protein X2 of SARS-CoV Urbani [1]: 0.4
- Binding of serum 62 to linear peptides of protein X2 [1]: 0.5
- Binding of serum 62 to looped/cyclic peptides of protein X2 of SARS-CoV Urbani [1]: 0.6
- Binding of serum London to linear peptides of protein X2 [1]: 0.3
- Binding of serum London to looped/cyclic peptides of protein X2 of SARS-CoV Urbani [1]: 0.2
- Binding of serum SARS-green to linear peptides of protein X2 [1]: 0.5
- Binding of serum SARS-green to looped/cyclic peptides of protein X2 of SARS-CoV Urbani [1]: 0.3
- Binding of serum SARS-yellow to linear peptides of protein X2 [1]: 0.4
- Binding of serum SARS-yellow to looped/cyclic peptides of protein X2 of SARS-CoV Urbani [1]: 0.4
- Binding of Control Serum Blood-Bank to Looped peptides [2]: 0.7
- Binding of Control serum Blood-bank to linear peptides [2]: 0.5
- Binding of Control serum LUMC to linear peptides [2]: 0.2
- Binding of Control serum LUMC to looped peptides [2]: 0.6
- Binding of a rabbit serum to linear peptides [3]: 0.3
- Binding of a rabbit serum to looped peptides [3]: 0.4

Sequence: LVRYNTRGNTYSTAW
- Binding of serum 1a to linear peptides of protein X5 of SARS-CoV Urbani [1]: 0.7
- Binding of serum 1a to looped/cyclic peptides of protein X5 of SARS-CoV Urbani [1]: 0.4
- Binding of serum 1b to linear peptides of protein X5 of SARS-CoV Urbani [1]: 0.4
- Binding of serum 1b to looped/cyclic peptides of protein X5 of SARS-CoV Urbani [1]: 0.2
- Binding of serum 2 to linear peptides of protein X5 of SARS-CoV Urbani [1]: 0.5
- Binding of serum 2 to looped/cyclic peptides of protein X5 of SARS-CoV Urbani [1]: 0.4
- Binding of serum 6 to linear peptides of protein X5 of SARS-CoV Urbani [1]: 0.4
- Binding of serum 6 to looped/cyclic peptides of protein X5 of SARS-CoV Urbani [1]: 0.3
- Binding of serum 37 to linear peptides of protein X5 of SARS-CoV Urbani [1]: 0.6
- Binding of serum 37 to looped/cyclic peptides of protein X5 of SARS-CoV Urbani [1]: 0.5
- Binding of serum 62 to linear peptides of protein X5 of SARS-CoV Urbani [1]: 0.7
- Binding of serum 62 to looped/cyclic peptides of protein X5 of SARS-CoV Urbani [1]: 0.6
- Binding of serum London to linear peptides of protein X5 of SARS-CoV Urbani [1]: 0.6
- Binding of serum London to looped/cyclic peptides of protein X5 of SARS-CoV Urbani [1]: 0.2
- Binding of serum SARS-green to linear peptides of protein X5 of SARS-CoV Urbani [1]: 0.4
- Binding of serum SARS-green to looped/cyclic peptides of protein X5 of SARS-CoV Urbani [1]: 0.3
- Binding of serum SARS-yellow to linear peptides of protein X5 of SARS-CoV Urbani [1]: 0.3
- Binding of serum SARS-yellow to looped/cyclic peptides of protein X5 of SARS-CoV Urbani [1]: 0.5
- Binding of Control Serum Blood-Bank to Looped peptides [2]: 0.3
- Binding of Control serum Blood-bank to linear peptides [2]: 0.8
- Binding of Control serum LUMC to linear peptides [2]: 0.5
- Binding of Control serum LUMC to looped peptides [2]: 0.5
- Rabbit serum linear peptides [3]: 0.7
- Rabbit serum looped peptides [3]: 0.3

Sequence: LVVILRIGTQVLKTM
- Binding of serum 1a to linear peptides of protein X2 [1]: 0.7
- Binding of serum 1a to looped/cyclic peptides of protein X2 of SARS-CoV Urbani [1]: 0.6
- Binding of serum 1b to linear peptides of protein X2 [1]: 0.5
- Binding of serum 1b to looped/cyclic peptides of protein X2 of SARS-CoV Urbani [1]: 0.6
- Binding of serum 2 to linear peptides of protein X2 [1]: 0.5
- Binding of serum 2 to looped/cyclic peptides of protein X2 of SARS-CoV Urbani [1]: 0.4
- Binding of serum 6 to linear peptides of protein X2 [1]: 0.4
- Binding of serum 6 to looped/cyclic peptides of protein X2 of SARS-CoV Urbani [1]: 0.4
- Binding of serum 37 to linear peptides of protein X2 [1]: 0.6
- Binding of serum 37 to looped/cyclic peptides of protein X2 of SARS-CoV Urbani [1]: 0.4
- Binding of serum 62 to linear peptides of protein X2 [1]: 0.7
- Binding of serum 62 to looped/cyclic peptides of protein X2 of SARS-CoV Urbani [1]: 0.7
- Binding of serum London to linear peptides of protein X2 [1]: 0.5
- Binding of serum London to looped/cyclic peptides of protein X2 of SARS-CoV Urbani [1]: 0.3
- Binding of serum SARS-green to linear peptides of protein X2 [1]: 0.5
- Binding of serum SARS-green to looped/cyclic peptides of protein X2 of SARS-CoV Urbani [1]: 0.4
- Binding of serum SARS-yellow to linear peptides of protein X2 [1]: 0.7
- Binding of serum SARS-yellow to looped/cyclic peptides of protein X2 of SARS-CoV Urbani [1]: 0.5
- Binding of Control Serum Blood-Bank to Looped peptides [2]: 0.8
- Binding of Control serum Blood-bank to linear peptides [2]: 0.7
- Binding of Control serum LUMC to linear peptides [2]: 0.7
- Binding of Control serum LUMC to looped peptides [2]: 0.6
- Binding of a rabbit serum to linear peptides [3]: 0.4
- Binding of a rabbit serum to looped peptides [3]: 0.6

Sequence: LYALIYFLQCINACR
- Binding of serum 1a to linear peptides of protein X1 of SARS-CoV Urbani [1]: 0.7
- Binding of serum 1a to looped/cyclic peptide (PEPSCAN-ELISA) [1]: 0.4
- Binding of serum 1b to linear peptides of protein X1 of SARS-CoV Urbani [1]: 0.5
- Binding of serum 1b to looped/cyclic peptide (PEPSCAN-ELISA) [1]: 0.3
- Binding of serum 2 to linear peptides of protein X1 of SARS-CoV Urbani [1]: 0.5
- Binding of serum 2 to looped/cyclic peptide (PEPSCAN-ELISA) [1]: 0.6
- Binding of serum 6 to linear peptides of protein X1 of SARS-CoV Urbani [1]: 0.5
- Binding of serum 6 to looped/cyclic peptide (PEPSCAN-ELISA) [1]: 0.7
- Binding of serum 37 to linear peptides of protein X1 of SARS-CoV Urbani [1]: 0.6
- Binding of serum 37 to looped/cyclic peptide (PEPSCAN-ELISA) [1]: 0.6
- Binding of serum 62 to linear peptides of protein X1 of SARS-CoV Urbani [1]: 0.6
- Binding of serum 62 to looped/cyclic peptide (PEPSCAN-ELISA) [1]: 0.5
- Binding of serum London to linear peptides of protein X1 of SARS-CoV Urbani [1]: 0.3
- Binding of serum London to looped/cyclic peptide (PEPSCAN-ELISA) [1]: 1.2
- Binding of serum SARS-green to linear peptides of protein X1 of SARS-CoV Urbani [1]: 0.1
- Binding of serum SARS-green to looped/cyclic peptide (PEPSCAN-ELISA) [1]: 0.2
- Binding of serum SARS-yellow to linear peptides of protein X1 of SARS-CoV Urbani [1]: 0.4
- Binding of serum SARS-yellow to looped/cyclic peptide (PEPSCAN-ELISA) [1]: 0.2
- Binding of Control Serum Blood-Bank to Looped peptides [2]: 0.4
- Binding of Control serum Blood-bank to linear peptides [2]: 0.7
- Binding of Control serum LUMC to linear peptides [2]: 0.6
- Binding of Control serum LUMC to looped peptides [2]: 0.6
- Binding of a rabbit serum to linear peptides [3]: 0.2
- Binding of a rabbit serum to looped peptides [3]: 0.6
